Here are results for five molecules from PubChem BioAssay AID743506 (Broad Institute, 2014).

One may read the IC50 as the midpoint of a concentration-inhibition curve.

Active and inactive are the calls of the source.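 Rule for the calls: active = compounds that block the bursicon-driven reporter signal with IC50 below 35000 nM; inactive = the rest.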

The test deals with Bursicon receptor (LGR2/rickets), Drosophila melanogaster. The test is described as follows: inhibition of bursicon-stimulated LGR2 cAMP signaling – cell-based, HEK293, CRE-luciferase, beta-gal normalized, dry powder, set 3, dose response (AID 743506). The note with it: 4 h.

On to `C[C@H](CO)N1C[C@H](C)[C@H](CN(C)C(=O)Nc2ccc3c(c2)OCO3)OCCCC[C@H](C)Oc2ccc(NC(=O)C3CCCCC3)cc2C1=O`, for which the concentration for half-maximal inhibition (IC50) was less than 35 µM. Consider `C[C@H](CO)N1C[C@H](C)[C@H](CN(C)C(=O)Nc2ccccc2)OCCCC[C@H](C)Oc2ccc(NC(=O)C3CCCCC3)cc2C1=O`, for which the IC50 was less than 35 µM. For `COc1ccc(NC(=O)N(C)C[C@@H]2OCCCC[C@H](C)Oc3ccc(NC(=O)C4CCCCC4)cc3C(=O)N([C@H](C)CO)C[C@@H]2C)cc1`, the half-maximal inhibitory concentration (IC50) is less than 35 µM.

For `C[C@@H]1CCCCO[C@H](CN(C)C(=O)Nc2ccc(F)cc2)[C@H](C)CN([C@@H](C)CO)C(=O)c2cc(NC(=O)C3CCCCC3)ccc2O1`, the IC50 was > 35 µM (inactive). In the case of `C[C@H](CO)N1C[C@H](C)[C@H](CN(C)C(=O)Nc2ccc(F)cc2)OCCCC[C@H](C)Oc2ccc(NC(=O)C3CCCCC3)cc2C1=O`, the half-maximal inhibitory concentration (IC50) was less than 35 µM.
